The mortality is the share of the test organisms that died.

This is an account of results in publication PMC3770646, “Isolation of an Orally Active Insecticidal Toxin from the Venom of an Australian Tarantula” (PLoS ONE, 2013).

For one data set, the system named is H. armigera. Conditions: ref [61], cited from earlier work. The source says: Table 2 Comparison of OAIP-1 with pyrethroid insecticides. | column: Oral LD50 (nmol/g)
Another data set relates to Helicoverpa armigera. Put plainly: Assay of synergism of imidacloprid and sOAIP-1 in agar diet. It counts as in vivo. Conditions: H. armigera fed 100 pmol of the single insecticide in agar diet, mean ±SEM of three replicates of 10. The procedure:
(§1) For feeding assays, an agar-based insect diet was created based on literature information (Table S1). Instead of using a separate preparation as a vitamin supplement, the commercially available children's vitamin Pentavite (Bayer, Leverkusen, Germany) was added after the agar had cooled below 65°C. Mealworms were fed 100 µL of the agar diet, with or without 20 µL toxin (or water for untreated controls). For the choice test, the same size Petri dish was divided in half and 50 µL of either toxin-treated or untreated agar was pipetted onto each half and mortality was recorded after 48 h. Cotton bollworms (Helicoverpa armigera, Lepidoptera: Noctuidae) were fed 5 µL toxin (or water for untreated controls) in 20 µL of agar diet, and maintained in 12-well tissue culture dishes. For assays of synergism using 100 pmol imidacloprid (Sigma-Aldrich) and 100 pmol sOAIP-1, 20 µL of one toxin or 10 µL of each toxin was incorporated into the agar diet for H. armigera. After all the treated diet was consumed, untreated diet was supplied ad libitum.
In all experiments, the mortality of untreated insects was used to correct the data for mortality due to injection of toxin or incorporation in the diet. […]

The nature of data set [1]: In vitro stability in undiluted insect hemolymph. It counts as in vitro ADME, Helicoverpa armigera. The note with it: undiluted H. armigera hemolymph, 30 µg peptide in 200 µL, ambient temperature (23°C), dark. The procedure:
Fourth-instar H. armigera larvae were decapitated and the gut was removed using forceps. The carcasses were spun in a benchtop centrifuge (14,000 g for 10 min) to separate the hemolymph from exoskeleton. For each time point, 200 µL of undiluted hemolymph was mixed with 30 µg of sOAIP-1. The hemolymph/sOAIP-1 solution was maintained in the dark at room temperature, and immediately before RP-HPLC analysis the hemolymph/sOAIP-1 solution was again spun in a benchtop centrifuge (14,000 g for 10 min). After centrifugation, 30 µg of a control peptide, ω-HXTX-Hv1a, was added to aid quantification and the sample was filtered using a […] filter. The toxins were separated by RP-HPLC using a linear acetonitrile gradient (5–40% over 40 min), and the identity of each toxin was confirmed using mass spectrometry. The percentage of intact sOAIP-1 present at each time point was determined by comparing the area of the sOAIP-1 peak to that at zero time, both measured relative to the area of the ω-HXTX-Hv1a peak.

In data set [2] the test system is mealworms (larval Tenebrio molitor). Briefly: Feeding choice test, toxin-treated and untreated agar. The format is in vivo. The procedure: as §1
In addition to toxicity assays, a choice test was conducted to determine whether sOAIP-1 is repellent. […] Conversely, if the toxin-treated agar was preferentially consumed, it might indicate that sOAIP-1 acts as an attractant.

Data set [3] shares this test system. Briefly: Feeding assay, toxin in agar diet fed to mealworms. The format is in vivo. The note with it: corrected for control mortality, three replicates of 10. On the procedure:
Chicken feed was provided ad libitum for mealworm food. A Whatman filter paper saturated with distilled water was used to maintain humidity in all mealworm experiments except feeding assays, which used the synthetic orally active insecticidal peptide 1 (sOAIP-1) in the agar diet described below. The agar diet allowed a homogenous mixture of toxin and diet to be prepared so preferential feeding on untreated diet would not be possible. All insects were maintained at 24.5°C in the dark at ambient humidity in sterile Petri dishes.
as §1, with “For assays of synergism using 100 pmol imidacloprid (Sigma-Aldrich) and 100 pmol sOAIP-1, 20 µL of one toxin or 10 µL of each toxin was incorporated into the agar diet for H. armigera. After all the treated diet was consumed, untreated diet was supplied ad libitum.” left out

For data set [4] the test system is unchanged. Briefly: Injection of toxin into mealworms. The note with it: injection into metathoracic pleurite, corrected for control mortality, three replicates of 10. It counts as in vivo.
Protocol: Termites were fed a 20% α-cellulose matrix (Sigma-Aldrich, St. Louis, MO) mixed with water; the toxin was dissolved in water, and 20 µL was added to the cellulose matrix to a final concentration of 350 nmol/g, and then pipetted into Petri dishes. After the cellulose matrix had dried (to prevent termites from drowning in wet bait), nine worker termites and one soldier termite were added to each dish; each toxin dose was replicated three times. As a comparison, toxins were also injected into mealworms at a concentration of 350 nmol/g in three replicates of 10 insects.
Mealworms were purchased from Pisces Enterprises (Kenmore, QLD, Australia). Insects between 3rd and 4th instar (∼180 mg/individual) were used. For each mealworm, 2.6 µL of toxin diluted in ultrapure water was injected into the metathoracic pleurite. Injections were performed using a 29.5 gauge insulin syringe (B–D Ultra-Fine, Terumo Medical Corporation, Elkton, MD). Three replicates of 10 insects were used for each toxin concentration, and the same number of control insects were injected with ultrapure water and maintained under the same conditions.
Chicken feed was provided ad libitum for mealworm food. […] All insects were maintained at 24.5°C in the dark at ambient humidity in sterile Petri dishes. […]
[5] abbreviates: pyrethroid-resistant strain BK99R9 (R).

SMILES strings stand for the structures. Like-named read-outs stand apart in the source and are kept apart here. Where a SMILES comes first, the peptide text is derived from it. Bridges are numbered along the chain shown (N, C = ends).

With `Cc1c(COC(=O)[C@@H]2[C@H](/C=C(\Cl)C(F)(F)F)C2(C)C)cccc1-c1ccccc1` (racemic) [Bifenthrin], the figures for the “Oral LD50” value with H. armigera (setting [5]) and with H. armigera (susceptible strain BK77 (S)) were 20.6 nmol/g and 1.1 nmol/g, respectively.
Turning to `CC1(C)[C@H](C(=O)O[C@H](C#N)c2cccc(Oc3ccccc3)c2)[C@@H]1C=C(Br)Br` [Deltamethrin], the figures for the “Oral LD50” value in the data set on H. armigera (setting [5]) and in the data set on H. armigera (susceptible strain BK77 (S)) were 0.46 nmol/g and 0.35 nmol/g, respectively.
With `CCOc1ccc(C(C)(C)COCc2cccc(Oc3ccccc3)c2)cc1` [Etofenprox], the “Oral LD50” value in the data set on H. armigera (setting [5]) is 55.9 nmol/g; in the data set with H. armigera (susceptible strain BK77 (S)), 0.31 nmol/g.
In the case of `CC(C)C(C(=O)OC(C#N)c1cccc(Oc2ccccc2)c1)c1ccc(Cl)cc1` (centres unmarked) [Fenvalerate], the “Oral LD50” value in the data set on H. armigera (setting [5]) is 41.9 nmol/g; in the data set with H. armigera (susceptible strain BK77 (S)), 7.8 nmol/g.
As to `O=[N+]([O-])NC1=NCCN1Cc1ccc(Cl)nc1` [imidacloprid], the “mortality at 48 h” value in the data set with Helicoverpa armigera amounted to 31±3%.
On to `CC[C@H](C)[C@@H]1NC(=O)[C@@H]2CSSC[C@H](NC(=O)[C@@H](N)CC(=O)O)C(=O)NCC(=O)N[C@@H](Cc3c[nH]cn3)C(=O)N[C@@H](CC(C)C)C(=O)N[C@@H](Cc3c[nH]cn3)C(=O)N[C@@H](CC(=O)O)C(=O)N3CCC[C@H]3C(=O)N[C@H]3CSSC[C@H](NC(=O)[C@H](CCC(N)=O)NC(=O)[C@H](CC(C)C)NC(=O)CNC1=O)C(=O)N[C@@H](CCCNC(=N)N)C(=O)N[C@@H](Cc1ccc(O)cc1)C(=O)NCC(=O)N[C@@H](CCCCN)C(=O)N[C@H](C(=O)N[C@@H](CC(C)C)C(=O)N[C@H](C(=O)N[C@@H](CCCNC(=N)N)C(=O)O)C(C)C)CSSC[C@H](NC(=O)[C@H]([C@@H](C)O)NC(=O)[C@H](CCCNC(=N)N)NC(=O)[C@H](Cc1c[nH]cn1)NC(=O)CNC(=O)[C@@H]1CCCN1C(=O)[C@H](CCCNC(=N)N)NC(=O)[C@H](CC(=O)O)NC(=O)[C@H](CC(N)=O)NC(=O)[C@@H]1CCCN1C3=O)C(=O)N2` [sOAIP-1] (H-DCGHLHDPCPNDRPGHRTCCIGLQCRYGKCLVR-OH; disulfide 2-20, 9-25, 19-30; N-terminus and C-terminus assumed), for which the remaining at 24 h in data set [1] (cerebrospinal or other body fluid, 24 h, RP-HPLC peak area relative to ω-HXTX-Hv1a, read-out: remained intact) is roughly 40%. Further, the metabolised at 72 h in data set [1] (cerebrospinal or other body fluid, 72 h, RP-HPLC peak area relative to ω-HXTX-Hv1a, read-out: peptide degraded) stood at 90%. Also, in data set [1] (one-week incubation, RP-HPLC), the remained intact result is given as “none remained intact”. In addition, in data set [2] (mealworms offered toxin-treated and untreated agar, 1 pmol toxin, three replicates of 10), the “mortality at 48 h in choice test” value is “no mortality”. The “repellent or attractant effect” value in data set [2] (mealworms, choice test compared with non-choice test) was “neither a repellent that repels insects nor an attractant”. For the same molecule, the “LD50, oral administration” value in data set [3] was 170.5 ± 0.2 nmol/g. In addition, in data set [4], the “LD50, injected toxin” value was found to be 1.84 ± 0.8 nmol/g. Also, the “mortality at 48 h” value with Helicoverpa armigera amounted to 4±3%.
